Source: US7262223B2, “Amidine derivatives for treating amyloidosis” (Neurochem (International) Limited, priority 2004, dated 2007)

target: T1, solubilized Aβ40 (Homo sapiens, UniProt P05067); assay: Mass spectroscopy (MS) assay of binding to soluble Aβ40; parameters: key: “+” = active; “−” = inactive; details: 200 μM test compound, 20 μM solubilized Aβ40, 20% ethanol, pH 7.4, electrospray ionization MS
T1 construct: 20 μM of solubilized Aβ40
Experimental: Test compounds were purchased from commercial sources or synthesized and screened by mass spectroscopy (“MS”) assay, which gives data on the ability of compounds to bind to an amyloid protein. Samples were prepared as aqueous solutions containing 20% ethanol, 200 μM of a test compound and 20 μM of solubilized Aβ40. The pH value of each sample was adjusted to 7.4 (±0.2) by addition of 0.1% aqueous sodium hydroxide. The solutions were then analyzed by electrospray ionization mass spectroscopy using a Waters ZQ 4000 mass spectrometer. Samples were introduced by direct infusion at a flow-rate of 25 μL/min within 2 hr. after sample preparation. The source temperature was kept at 70° C. and the cone voltage was 20 V for all the analysis. Data were processed using Masslynx 3.5 software. The MS assay gives data on the ability of compounds to bind to Aβ, whereas the ThT, EM and CD assays give data on inhibition of fibrillogenesis.

T1 sequence (P05067 672-711 limits assumed): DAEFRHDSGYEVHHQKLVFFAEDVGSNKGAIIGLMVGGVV

| SMILES | MS Assay |
| --- | --- |
| CCOC(=O)c1ccc(C(=O)NCCCCCCCNC(=O)c2ccc(C(=N)N)cc2)cc1 [Compound 148] | + |
| N=C(NCCCCCCCCCNC(=N)c1ccc(Br)cc1)c1ccc(Br)cc1 [Compound 151] | + |
| COc1ccc(C(=N)NCCCCCCCCCNC(=N)c2ccc(OC)cc2)cc1 [Compound 152] | − |
| N=C(NCCCCCCCNC(=O)c1ccc(Br)cc1)c1ccc(Br)cc1 [Compound 146] | + |
| N/C(=N\O)c1ccc(OCCCCCCCCCNO)cc1 [Compound 147] | − |
| Nc1ccc(OCCCCCOc2ccc(NC3=NCCN3)cc2)cc1 [Compound 156] | − |
| COc1ccc(C(=N)NCCCCCNC(=N)c2ccc(OC)cc2)cc1 [Compound 154] | + |
| COc1ccc(C(=N)NCCN2CCN=C2c2ccc(OC)cc2)cc1 [Compound 153] | + |
| N=C(NCCCCCCCN)c1ccc(Br)cc1 [Compound 145] | + |
| N=C(N)c1ccc(S(=O)(=O)NCCCCCCCCCNS(=O)(=O)c2ccc(C(=N)N)cc2)cc1 [Compound 158] | − |
| N=C(N)c1ccc(C(=O)NCCN(CCNC(=O)c2ccc(C(=N)N)cc2)C(=O)c2ccc(C(=N)N)cc2)cc1 [Compound 155] | − |
| CCOC(=O)c1ccc(C(=O)NCCCCCCCCCNC(=O)c2ccc(C(=N)N)cc2)cc1 [Compound 149] | + |
| N=C(NCCCCCNC(=N)c1ccc(Br)cc1)c1ccc(Br)cc1 [Compound 150] | + |
